Series [1] deals with human embryonic stem cell derived neural stem cells (NSCs). As to the kind of experiment: Neural Stem Cell Proliferation Assay (neurogenesis assay, ATP levels by CellTiterGlo). As to conditions: 96 h, compound concentration at which 150% activity of control (100%) is reached, NSC proliferation by ATP level after 4 days incubation, dose response 8 μM to 8 nM. It is filed as cell-based. In a few lines: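 Human ESC-derived NSCs (dual SMAD inhibition) seeded 4 h before compounds, 11-point 2-fold series 8 μM–8 nM; 4 days at 37 °C, 5% CO2. ATP by CellTiterGlo luminescence as cell-number proxy, response as % of media control (0.25% DMSO); EC150 = concentration giving 150% of control.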

In the case of `Cc1c2n(c3c(-c4cc(F)c(F)c(F)c4)cc(C#N)cc13)CCCNC2=O` [Example 244, 11-Methyl-1-oxo-7-(3,4,5-trifluorophenyl)-2,3,4,5-tetrahydro-[1,4]diazepino[1,2-a]indole-9-carbonitrile], the melting point came to 306 °C. The compound further came in with an EC (150% of control) in series [1] of 0.47 µM.

Compound `Cc1c2n(c3c(-c4ccc(C(F)(F)F)cc4)cc(C#N)cc13)CCNC2=O` [Example 165, 10-Methyl-1-oxo-6-(4-trifluoromethyl-phenyl)-1,2,3,4-tetrahydro-pyrazino[1,2-a]indole-8-carbonitrile] showed a melting point of 282 °C. The compound further yielded an EC (150% of control) in series [1] of 0.018 µM.

In the case of `Cc1c2n(c3c(-c4ccc(Cl)c(F)c4)cc(F)cc13)CCNC2=O` [Example 85, 6-(4-Chloro-3-fluoro-phenyl)-8-fluoro-10-methyl-3,4-dihydro-2H-pyrazino[1,2-a]indol-1-one], the melting point was 216 °C. The EC (150% of control) in series [1] came to 0.04 µM.

`O=C1NCCn2c1c(C(F)(F)F)c1cc(F)cc(-c3ccc(F)cc3)c12` [Example 181, 8-Fluoro-6-(4-fluoro-phenyl)-10-trifluoromethyl-3,4-dihydro-2H-pyrazino[1,2-a]indol-1-one] registered a melting point of 193 °C. In series [1], this compound displayed an EC (150% of control) of 0.62 µM.

In the case of `O=C1NCCn2c1cc1cc(F)cc(-c3ccc(F)cc3)c12` [Example 18, 8-Fluoro-6-(4-fluoro-phenyl)-3,4-dihydro-2H-pyrazino[1,2-a]indol-1-one], the melting point worked out at 304 °C. The same compound showed an EC (150% of control) in series [1] of 0.026 µM.

`C[C@@H]1CNC(=O)c2cc3cccc(-c4ccncc4)c3n21` [Example 3, (R)-4-Methyl-6-pyridin-4-yl-3,4-dihydro-2H-pyrazino[1,2-a]indol-1-one] returned a melting point of 264 °C. Besides, the EC (150% of control) in series [1] was determined as 2.31 µM.

Take `Cc1c2n(c3c(-c4cccc(C#N)c4)cc(Cl)cc13)CCNC2=O` [Example 117, 3-(8-Chloro-10-methyl-1-oxo-1,2,3,4-tetrahydro-pyrazino[1,2-a]indol-6-yl)-benzonitrile]: the melting point is 199 °C. Besides, the EC (150% of control) in series [1] came to 0.4 µM.

In turn, `Cc1c2n(c3c(-c4ccc(S(C)(=O)=O)cc4)cc(C#N)cc13)CCNC2=O` [Example 294, 10-Methyl-6-(4-methylsulfonylphenyl)-1-oxo-3,4-dihydro-2H-pyrazino[1,2-a]indole-8-carbonitrile] returned a melting point of 332 °C. Further, the EC (150% of control) in series [1] stood at 0.27 µM.

Compound `C[C@@H]1CNC(=O)c2cc3cc(F)cc(-c4ccccc4)c3n21` [Example 4, (R)-8-Fluoro-4-methyl-6-phenyl-3,4-dihydro-2H-pyrazino[1,2-a]indol-1-one] displayed a melting point of 243.5 °C. This compound registered an EC (150% of control) in series [1] of 0.37 µM.

In turn, `N#Cc1cc(-c2ccc(OC(F)(F)F)cc2)c2c(c1)cc1n2CCCNC1=O` [Example 255, 1-Oxo-7-[4-(trifluoromethoxy)phenyl]-2,3,4,5-tetrahydro-[1,4]diazepino[1,2-a]indole-9-carbonitrile] displayed a melting point of 230.5 °C. In series [1], the EC (150% of control) worked out at 0.3 µM.

`Cc1c2n(c3c(-c4ccc(Cl)c(C(F)(F)F)c4)cc(F)cc13)CCNC2=O` [Example 150, 6-(4-Chloro-3-trifluoromethyl-phenyl)-8-fluoro-10-methyl-3,4-dihydro-2H-pyrazino[1,2-a]indol-1-one] displayed a melting point of 240 °C. Besides, in series [1], the EC (150% of control) was 0.61 µM.

`Cc1c2n(c3c(-c4ccc(Cl)cc4F)cc(Cl)cc13)CCNC2=O` [Example 101, 8-Chloro-6-(4-chloro-2-fluoro-phenyl)-10-methyl-3,4-dihydro-2H-pyrazino[1,2-a]indol-1-one] displayed a melting point of 251.5 °C. Moreover, in series [1], the EC (150% of control) amounted to 0.006 µM.

Compound `Cc1c2n(c3c(-c4ccc(F)c(F)c4F)cc(F)cc13)CCNC2=O` [Example 151, 8-Fluoro-10-methyl-6-(2,3,4-trifluoro-phenyl)-3,4-dihydro-2H-pyrazino[1,2-a]indol-1-one] showed a melting point of 130 °C. In series [1], this compound had an EC (150% of control) of 0.035 µM.

In turn, `Cc1c2n(c3c(-c4cccc(Cl)c4)cc(F)cc13)CCNC2=O` [Example 128, 6-(3-Chloro-phenyl)-8-fluoro-10-methyl-3,4-dihydro-2H-pyrazino[1,2-a]indol-1-one] came in with a melting point of 182 °C. In addition, the EC (150% of control) in series [1] was 0.22 µM.

Take `Cc1cc(-c2cc(C#N)cc3c(C)c4n(c23)CCNC4=O)ccc1F` [Example 292, 6-(4-Fluoro-3-methylphenyl)-10-methyl-1-oxo-3,4-dihydro-2H-pyrazino[1,2-a]indole-8-carbonitrile]: the melting point was found to be 232 °C. The compound also had an EC (150% of control) in series [1] of 0.089 µM.

`Cc1c2n(c3c(-c4cc(F)c(F)c(F)c4)cc(Cl)cc13)CCNC2=O` [Example 136, 8-Chloro-10-methyl-6-(3,4,5-trifluoro-phenyl)-3,4-dihydro-2H-pyrazino[1,2-a]indol-1-one] showed a melting point of 253 °C. Besides, the EC (150% of control) in series [1] came out at 0.021 µM.

`Cc1c2n(c3c(-c4cccnc4)cc(Cl)cc13)CCNC2=O` [Example 137, 8-Chloro-10-methyl-6-pyridin-3-yl-3,4-dihydro-2H-pyrazino[1,2-a]indol-1-one] returned a melting point of 252.5 °C. In series [1], this compound showed an EC (150% of control) of 0.088 µM.

On to `Cc1c2n(c3c(-c4ccc(Cl)cc4Cl)cc(C#N)cc13)CCNC2=O` [Example 167, 6-(2,4-Dichloro-phenyl)-10-methyl-1-oxo-1,2,3,4-tetrahydro-pyrazino[1,2-a]indole-8-carbonitrile], for which the melting point is 274 °C. The same compound gave an EC (150% of control) in series [1] of 0.002 µM.

`Cc1c2n(c3c(-c4ccc(Cl)c(C(F)(F)F)c4)cc(C#N)cc13)CCNC2=O` [Example 295, 6-[4-Chloro-3-(trifluoromethyl)phenyl]-10-methyl-1-oxo-3,4-dihydro-2H-pyrazino[1,2-a]indole-8-carbonitrile] yielded a melting point of 278 °C. The same compound registered an EC (150% of control) in series [1] of 0.3 µM.

Compound `Cc1c2n(c3c(-c4ccc(Cl)cc4Cl)cc(C#N)cc13)CCCNC2=O` [Example 206, 7-(2,4-Dichlorophenyl)-11-methyl-1-oxo-2,3,4,5-tetrahydro-[1,4]diazepino[1,2-a]indole-9-carbonitrile] had a melting point of 257 °C. In series [1], this compound registered an EC (150% of control) of 0.031 µM.

`N#Cc1cc(-c2ccc(F)nc2)c2c(c1)cc1n2CCNC1=O` [Example 203, 6-(6-Fluoropyridin-3-yl)-1-oxo-3,4-dihydro-2H-pyrazino[1,2-a]indole-8-carbonitrile] returned a melting point of 268 °C. In series [1], the EC (150% of control) was found to be 0.36 µM.

For the compound `O=C1NCCn2c1cc1cc(Cl)cc(-c3ccc(Cl)cc3)c12` [Example 49, 8-Chloro-6-(4-chloro-phenyl)-3,4-dihydro-2H-pyrazino[1,2-a]indol-1-one], the melting point was 320 °C. In series [1], this compound gave an EC (150% of control) of 0.045 µM.

Turning to `Cc1cc(-c2ccc(F)cc2)c2c(c1)cc1n2CCNC1=O` [Example 62, 6-(4-Fluoro-phenyl)-8-methyl-3,4-dihydro-2H-pyrazino[1,2-a]indol-1-one], the melting point was determined as 257 °C. The EC (150% of control) in series [1] was 0.32 µM.
